For the experiment, the system named is KV3.4 currents. The experiment can be described thus: Whole-cell patch clamp of KV3.4 currents in NGF-differentiated PC-12 cells, control or exposed to Aβ1−42. Format: cell-based, Rat. The settings on record: peak of +40 mV pulse, 6 to 10 cells, 3 sessions; for effect on KV3.4 activity in NGF-differentiated PC-12 cells: 100 nM, control condition (no Aβ1−42); for effect on KV3.4 upregulation elicited by Aβ1−42 exposure: peptide 100 nM, 30 min pre-treatment, Aβ1−42 oligomers 5 μM for 24 h. The procedure:
Rat pheochromocytoma cells (PC-12 cells) were grown as previously described (Pannaccione et al., [2005], [2007]). For all the experiments, cells were seeded at low density on glass cover-slips coated with poly-L-lysine (50 μg/ml). Differentiation of PC-12 cells was achieved by treatment with neuronal growth factor (NGF) 2.5 S (50 ng/ml) for 7–9 days (Greene and Tischler, [1976]). For electrophysiological experiments, cells were seeded on glass cover-slips and used after 7–9 days of NGF.
Currents from CHO cells were recorded at room temperature 1-2 days after transfection. The extracellular solution contained the following (in mM): 138 NaCl, 5.4 KCl, 2 CaCl2, 1 MgCl2, 10 glucose and 10 HEPES, adjusted pH 7.4 with NaOH. The pipette solution contained (in mM) the following: 140 KCl, 2 MgCl2, 10 EGTA, 10 HEPES, 5 Mg-ATP, adjusted pH 7.4 with KOH (Miceli et al., [2015]). KV3.4 currents were measured by applying voltage steps from −100 mV to +60 mV from a holding potential of −80 mV (Abbott et al., [2001]). Moreover, the total outward K^+ currents were recorded in NGF-differentiated PC-12 cells using the extracellular solution contained the following (in mM): 150 NaCl, 5.4 KCl, 3 CaCl2, 1 MgCl2, 10 HEPES, adjusted pH 7.4 with NaOH. The pipette solution contained the following (in mM): 140 KCl, 2 MgCl2, 10 HEPES, 10 glucose, 10 EGTA, and 1 Mg-ATP adjusted at pH 7.4 with KOH (Diochot et al., [1998]). All experiments were performed in the presence of 50 nM tetrodotoxin (TTX) and 10 μ M nimodipine in the extracellular solution. To discriminate K^+ current components appropriate electrophysiological protocols were used (Pannaccione et al., [2007]). Steady-state activation and inactivation properties were measured by using appropriate protocols (Pannaccione et al., [2005]). […] The capacitance of the membrane was calculated according to the following equation: Cm = τc·Io/ΔEm (1-I∞/Io), where Cm is membrane capacitance, τc is the time constant of the membrane capacitance, Io is the maximum capacitance current value, ΔEm is the amplitude of the voltage step, and I∞ is the amplitude of the steady-state current. K^+ currents were recorded by patch-clamp technique in CHO and NGF-differentiated PC-12 cells using a commercially available amplifier (Axopatch 200B, Molecular Devices) and Digidata 1322A interface (Molecular Devices, USA). […] Data were acquired and analyzed using the pClamp software (version 9, Molecular Devices). […]
The peptide used in our study was synthesized by INBIOS (Pozzuoli, Naples, Italy) using the Aβ1−42 sequence of human APP [UniProtKB-P05067 (A4_HUMAN)]. The purity of the peptide was assessed by high-performance liquid chromatography (>95% pure) and the amino acid composition was verified by mass spectrometry. […]
In general terms: In patch-clamp work, channel activity is measured electrically.

Ends that are not written are not given here.

We go through 2 substances from article PMC6629785, “Synthesis and Pharmacological Evaluation of a Novel Peptide Based on Anemonia sulcata BDS-I Toxin as a New KV3.4 Inhibitor Exerting a Neuroprotective Effect Against Amyloid-β Peptide” (Frontiers in Chemistry, 2019).

With H-GSAFAPAA-OH [BDS-I[1-8scr]], the “effect on KV3.4 activity in NGF-differentiated PC-12 cells” value is reported as “did not exert any effect” and the “effect on KV3.4 upregulation elicited by Aβ1−42 exposure” value was “did not counteract”.

Turning to AAPAFASG [BDS-I[1-8]], the “effect on KV3.4 activity in NGF-differentiated PC-12 cells” value is listed as “blocked KV3.4 activity” and the “effect on KV3.4 upregulation elicited by Aβ1−42 exposure” value is given as “prevented”.
